# Experimental data published in US4150970A, “Growth regulator for plants” (Board of Trustees of Michigan State University, priority 1977, dated 1979).
# “Also recorded” adds a separate entry of the source.
# What was measured:
# Format in all cases: in vivo
# [1] = test system: rice; experiment: Synthetic triacontanol on rice in nutrient cultures (Example III); conditions: for Dry wt / Water Uptake: seven days
# Method: Synthetic triacontanol in aqueous solution was applied to rice (4 replicates) in nutrient cultures and to "Chico III" tomatoes (6 replicates) grown in soil as previously described. The response of both rice and tomatoes to synthetic triacontanol after seven and six days respectively was similar to that of the natural triacontanol with the optimum rate at between 0.01 and 0.1 mg per liter, as summarized in the following table III:
# ^1 Treatments applied on filter paper, including control and placed i
# nutrient solution. The solution was changed after 4 days. Seedlings
# weighed 57 mg at initiation of test.
# [2] = test system: Starbonnet rice seedlings; experiment: Growth analysis of Starbonnet rice seedlings under different light intensities (Example VI); set-up: key to NAR: mg plant weight per cm^2 leaf area per day; RGR / LAR: unit not given here
# Method: (§1) Rice seed cv. IR-8, or Starbonnet was surface treated with 0.1 percent mercuric chloride and planted in 77 cc plastic cups containing vermiculite and watered with one-fourth Hoagland's nutrient solution containing 3 mM of nitrogen at pH 5.0. After 10 days, seedlings were transplanted to 220 cc specimen cups wrapped in aluminum foil and containing 180 cc of the same Hoagland's nutrient solution. Four seedlings were suspended in the solution with a sponge rubber disc. The plants were grown under a 8 h night at 25° C. and a 16 h day at 30° C. with 21 and 8 μwatts per cm^2 in the blue and red spectra respectively. In the test with varying light intensity the high light intensity was 30 13 and the low intensity was 15 and 8 μwatts per cm^2 for the blue and red spectra respectively. The nutrient solution was renewed every 2 or 3 days. After one week the plants were sorted for size and similar sized plants assigned to the same block for the experiment. Prior to the initiation of a test the plants in each cup were assigned treatment numbers by use of a random number table. […] Sixteen hours prior to a test the foil wrapped cups were tared, and filled with one-half Hoaglands solution containing 6 mM nitrogen. Eighteen μl of chloroform or chloroform containing 1.8 μg triacontanol were placed on 2 cm^2 of Whatman No. 1 filter papers, air dried and placed in the specimen cups. This concentration of 10 μg triacontanol/liter was used for all tests described in the following Examples except where specifically indicated to the contrary. Immediately prior to the test the cups were all brought up to 180 ml. including a set of cups without plants to measure evaporation.
# The plants were disected at harvest into shoots and roots. The expanded leaves were cut at the ligule and the newest leaf at the point it entered the sheath. The surface area of expanded leaves were measured using a Lambda Model LI-3000 planimeter. The plants were dried to constant weight in an oven at 100° C. and the roots, expanded leaves, and sheaths were weighed separately.
# Growth analysis was conducted according to Evans (1972). The Net Assimulation Rate (NAR) is the increase in plant weight per unit of leaf area over time interval where: W=total weight per plant in mg, T=time in days, and L=leaf area in cm^2. [formula]
# The relative growth rate (RGR) is the increase in plant weight per unit of original weight over a time interval and is obtained by: [formula]
# The leaf area ratio is the ratio of leaf area to […] over a time interval. [formula]
# This Example presents a growth analysis of `Starbonnet` rice seedlings treated with triacontanol under different light intensities, "Low" and "High" intensities are defined above, and in the Table VI these designations represent the light to which each plant was subjected.
# [3] = test system: IR-8 rice seedlings; experiment: Dry weight and total protein of 18-day-old rice seedlings in light and dark for 24 hours (Examples X and XVII); conditions: for Dry Wt, Entire Plant / Dry Wt, Expanded leaves / Dry Wt, Roots / Dry Wt, Sheaths: 24 hours
# Method: as §1
# Plants were placed in 20×32 cm glass jars fitted with gas inlet and outlet ports. Three jars containing 2 cups each were used for a total of 24 plants for each treatment. The plants were ventilated with air or freed of CO2 by passing it through ascarite and then humidified. The flow rate was approximately 300 ml/minute. Carbon dioxide-free air was also used to purge the appropriate jars during a two minute period required to place the plants in the jars. The N analyses were done by the automated micro-Kjelldahl procedure of Ferrari (1960).
# Using the materials and procedures set forth above, dry weight and total protein (nitrogen) content of 18-day-old "IR-8" rice seedlings grown in light and dark for 24 hours with or without triacontanol was determined. Table X sets forth the results:
# This example was run to determine the percent change in dry weight of whole 18-day-old "IR-8" rice seedlings treated with triacontanol in the light and dark over a 24 hour period expressed as percent change from zero time. The dry weight at zero time was 50.8 mg per seedling.
# [4] = test system: IR-8 rice seedlings; experiment: Single versus multiple applications on rice seedlings (Example XI)
# Method: as §1
# Water uptake was measured by weighing the cups after removal of the plants and subtracting the tare and the water evaporated. For tests continued for more than one day, the solution used was measured every 3 days and new Hoagland's added and the pH maintained at 5.0 with sulfuric acid.
# In this Example, the experiment determined the growth of "IR-8" rice seedlings by comparing a single application of triacontanol with multiple applications of triacontanol. Triacontanol was applied at the beginning of each indicated period.
# [5] = test system: Coho barley seedlings; experiment: Barley seedlings, triacontanol solutions applied to soil (Example XV)
# From the text: To study the growth of 25-day-old "Coho" barley seedlings treated with triacontanol solutions applied to the soil in the greenhouse. Treatments were started when seedlings were 13 days old.
smiles,measurement,setting,value
"CCCCCCCCCCCCCCCCCCCCCCCCCCCCCCO [Triacontanol, 1-triacontanol]",Dry wt,[1]; 0.001 mg/liter,103 mg/plant
same,Water Uptake,[1]; 0.001 mg/liter,37.0 g/plant
same,Dry wt,[1]; 0.010 mg/liter,107 mg/plant
same,Water Uptake,[1]; 0.010 mg/liter,38.8 g/plant
same,Dry wt,[1]; 0.100 mg/liter,106 mg/plant
same,Water Uptake,[1]; 0.100 mg/liter,39.0 g/plant
same,Dry wt,[1]; 1.000 mg/liter,91 mg/plant
same,Water Uptake,[1]; 1.000 mg/liter,33.4 g/plant
same,minimal effective concentration,"[1]; Oryza sativa, soil, rice seedlings, nutrient cultures",≥ 0.001 µg/mL
same,LAR,"[2]; high light, 0-4 hours",3.31
same,NAR,"[2]; high light, 0-4 hours",6.42
same,RGR,"[2]; high light, 0-4 hours",0.89
same,LAR,"[2]; high light, 5-8 hours",3.45
same,NAR,"[2]; high light, 5-8 hours",3.96
same,RGR,"[2]; high light, 5-8 hours",0.57
same,LAR,"[2]; high light, 9-16 hours",3.74
same,NAR,"[2]; high light, 9-16 hours",3.19
same,RGR,"[2]; high light, 9-16 hours",0.50
same,dry weight accumulation per leaf area at low light versus control at high light,[2]; low light intensities,as much dry weight per cm^2 of leaf area at low light intensities as the control plants did at the higher light intensity; also recorded: as much dry weight per unit of leaf area at low light intensities as the control plants did at higher light intensities
same,LAR,"[2]; low light, 0-4 hours",3.76
same,NAR,"[2]; low light, 0-4 hours",3.77
same,RGR,"[2]; low light, 0-4 hours",0.59
same,LAR,"[2]; low light, 5-8 hours",3.90
same,NAR,"[2]; low light, 5-8 hours",4.14
same,RGR,"[2]; low light, 5-8 hours",0.67
same,LAR,"[2]; low light, 9-16 hours",4.20
same,NAR,"[2]; low light, 9-16 hours",2.81
same,RGR,"[2]; low light, 9-16 hours",0.49
same,dry weight in the dark versus dark controls,"[3]; dark, 6- and 24-hour harvests",gained significantly more weight than the dark controls
same,"Dry Wt, Entire Plant",[3]; dark,55.0 mg/plant
same,"Dry Wt, Expanded leaves",[3]; dark,22.0 mg/plant
same,"Dry Wt, Roots",[3]; dark,20.3 mg/plant
same,"Dry Wt, Sheaths",[3]; dark,12.8 mg/plant
same,"Dry Wt, Entire Plant",[3]; light,72.9 mg/plant
same,"Dry Wt, Expanded leaves",[3]; light,30.3 mg/plant
same,"Dry Wt, Roots",[3]; light,24.6 mg/plant
same,"Dry Wt, Sheaths",[3]; light,18.0 mg/plant
same,Dry wt,[4]; multiple applications,286 mg/seedling
same,Water uptake per day,"[4]; multiple applications, time period 0-2",14.2 mL
same,Water uptake per day,"[4]; multiple applications, time period 3-5",22.6 mL
same,Water uptake per day,"[4]; multiple applications, time period 6-7",33.5 mL
same,Water uptake per day,"[4]; multiple applications, time period 8-9",40.2 mL
same,Water uptake per day,"[4]; multiple applications, time period 10-12, two cups dry at harvest",57.0 mL
same,Dry wt,[4]; single application,273 mg/seedling
same,Water uptake per day,"[4]; single application, time period 0-2",13.9 mL
same,Water uptake per day,"[4]; single application, time period 3-5",21.0 mL
same,Water uptake per day,"[4]; single application, time period 6-7",30.0 mL
same,Water uptake per day,"[4]; single application, time period 8-9",35.8 mL
same,Water uptake per day,"[4]; single application, time period 10-12, two cups dry at harvest",56.6 mL
same,Seedling wt,"[5]; nutrients 0, triacontanol 0.01 mg/L",275 mg/shoot
same,Seedling wt,"[5]; nutrients 0, triacontanol 0.10 mg/L",270 mg/shoot
same,Seedling wt,"[5]; nutrients 100 mg 20-20-20/L, triacontanol 0.01 mg/L",310 mg/shoot
same,Seedling wt,"[5]; nutrients 100 mg 20-20-20/L, triacontanol 0.10 mg/L",316 mg/shoot
same,Seedling wt,"[5]; nutrients 1000 mg 20-20-20/L, triacontanol 0.01 mg/L",438 mg/shoot
same,Seedling wt,"[5]; nutrients 1000 mg 20-20-20/L, triacontanol 0.10 mg/L",442 mg/shoot
